# Experimental data as given in ChEMBL document CHEMBL1201862, “PubChem BioAssay data set” (2004).
# Active and inactive are the calls of the source.
# Legend:
# [1] = molecular target: Lysosomal acid glucosylceramidase (Homo sapiens, UniProt P04062); assay: Dose response cell-based high throughput screening assay to identify enhancers of beta-glucosidase activity. [Related pubchem assays: 784 ]; format: functional
# [2] = molecular target: Eukaryotic translation initiation factor 4H (Homo sapiens, UniProt Q15056); assay: human eIF4H binding inhibitors, primary screen, translation initiation inhibitor project, biochemical, uHTS, fluorescence polarization (AID 2012)
# [3] = molecular target: Polyadenylate-binding protein 1 (Homo sapiens, UniProt P11940); assay: PABP poly(A) RNA binding inhibitors, primary screen, biochemical, fluorescence polarization, uHTS (AID 2014)
# [4] = molecular target: Aspartyl aminopeptidase (Plasmodium falciparum 3D7, UniProt Q8I2J3)
# [5] = molecular target: Procathepsin L (Homo sapiens, UniProt P07711)
# Procathepsin L, sequence (P07711 whole entry): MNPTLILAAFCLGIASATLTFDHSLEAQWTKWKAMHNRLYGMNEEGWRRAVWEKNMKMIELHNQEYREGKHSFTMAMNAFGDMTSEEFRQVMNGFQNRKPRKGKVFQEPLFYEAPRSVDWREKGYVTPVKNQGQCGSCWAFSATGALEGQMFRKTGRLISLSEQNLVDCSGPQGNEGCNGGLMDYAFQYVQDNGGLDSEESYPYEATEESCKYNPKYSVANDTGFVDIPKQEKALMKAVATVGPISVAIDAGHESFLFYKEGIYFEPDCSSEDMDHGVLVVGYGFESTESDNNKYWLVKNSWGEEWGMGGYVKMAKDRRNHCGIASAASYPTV
# [6] = molecular target: T1, Voltage-gated N-type calcium channel alpha-1B subunit/Amyloid beta A4 precursor protein-binding family A member 1 (Homo sapiens, UniProt Q00975+Q02410); assay: disruptors of Mint-PDZ/N-type channel peptide interaction – biochemical, HTRF, set 2, SAR follow-up (AID 434980); format: functional
# T1 sequence (Q00975 whole entry): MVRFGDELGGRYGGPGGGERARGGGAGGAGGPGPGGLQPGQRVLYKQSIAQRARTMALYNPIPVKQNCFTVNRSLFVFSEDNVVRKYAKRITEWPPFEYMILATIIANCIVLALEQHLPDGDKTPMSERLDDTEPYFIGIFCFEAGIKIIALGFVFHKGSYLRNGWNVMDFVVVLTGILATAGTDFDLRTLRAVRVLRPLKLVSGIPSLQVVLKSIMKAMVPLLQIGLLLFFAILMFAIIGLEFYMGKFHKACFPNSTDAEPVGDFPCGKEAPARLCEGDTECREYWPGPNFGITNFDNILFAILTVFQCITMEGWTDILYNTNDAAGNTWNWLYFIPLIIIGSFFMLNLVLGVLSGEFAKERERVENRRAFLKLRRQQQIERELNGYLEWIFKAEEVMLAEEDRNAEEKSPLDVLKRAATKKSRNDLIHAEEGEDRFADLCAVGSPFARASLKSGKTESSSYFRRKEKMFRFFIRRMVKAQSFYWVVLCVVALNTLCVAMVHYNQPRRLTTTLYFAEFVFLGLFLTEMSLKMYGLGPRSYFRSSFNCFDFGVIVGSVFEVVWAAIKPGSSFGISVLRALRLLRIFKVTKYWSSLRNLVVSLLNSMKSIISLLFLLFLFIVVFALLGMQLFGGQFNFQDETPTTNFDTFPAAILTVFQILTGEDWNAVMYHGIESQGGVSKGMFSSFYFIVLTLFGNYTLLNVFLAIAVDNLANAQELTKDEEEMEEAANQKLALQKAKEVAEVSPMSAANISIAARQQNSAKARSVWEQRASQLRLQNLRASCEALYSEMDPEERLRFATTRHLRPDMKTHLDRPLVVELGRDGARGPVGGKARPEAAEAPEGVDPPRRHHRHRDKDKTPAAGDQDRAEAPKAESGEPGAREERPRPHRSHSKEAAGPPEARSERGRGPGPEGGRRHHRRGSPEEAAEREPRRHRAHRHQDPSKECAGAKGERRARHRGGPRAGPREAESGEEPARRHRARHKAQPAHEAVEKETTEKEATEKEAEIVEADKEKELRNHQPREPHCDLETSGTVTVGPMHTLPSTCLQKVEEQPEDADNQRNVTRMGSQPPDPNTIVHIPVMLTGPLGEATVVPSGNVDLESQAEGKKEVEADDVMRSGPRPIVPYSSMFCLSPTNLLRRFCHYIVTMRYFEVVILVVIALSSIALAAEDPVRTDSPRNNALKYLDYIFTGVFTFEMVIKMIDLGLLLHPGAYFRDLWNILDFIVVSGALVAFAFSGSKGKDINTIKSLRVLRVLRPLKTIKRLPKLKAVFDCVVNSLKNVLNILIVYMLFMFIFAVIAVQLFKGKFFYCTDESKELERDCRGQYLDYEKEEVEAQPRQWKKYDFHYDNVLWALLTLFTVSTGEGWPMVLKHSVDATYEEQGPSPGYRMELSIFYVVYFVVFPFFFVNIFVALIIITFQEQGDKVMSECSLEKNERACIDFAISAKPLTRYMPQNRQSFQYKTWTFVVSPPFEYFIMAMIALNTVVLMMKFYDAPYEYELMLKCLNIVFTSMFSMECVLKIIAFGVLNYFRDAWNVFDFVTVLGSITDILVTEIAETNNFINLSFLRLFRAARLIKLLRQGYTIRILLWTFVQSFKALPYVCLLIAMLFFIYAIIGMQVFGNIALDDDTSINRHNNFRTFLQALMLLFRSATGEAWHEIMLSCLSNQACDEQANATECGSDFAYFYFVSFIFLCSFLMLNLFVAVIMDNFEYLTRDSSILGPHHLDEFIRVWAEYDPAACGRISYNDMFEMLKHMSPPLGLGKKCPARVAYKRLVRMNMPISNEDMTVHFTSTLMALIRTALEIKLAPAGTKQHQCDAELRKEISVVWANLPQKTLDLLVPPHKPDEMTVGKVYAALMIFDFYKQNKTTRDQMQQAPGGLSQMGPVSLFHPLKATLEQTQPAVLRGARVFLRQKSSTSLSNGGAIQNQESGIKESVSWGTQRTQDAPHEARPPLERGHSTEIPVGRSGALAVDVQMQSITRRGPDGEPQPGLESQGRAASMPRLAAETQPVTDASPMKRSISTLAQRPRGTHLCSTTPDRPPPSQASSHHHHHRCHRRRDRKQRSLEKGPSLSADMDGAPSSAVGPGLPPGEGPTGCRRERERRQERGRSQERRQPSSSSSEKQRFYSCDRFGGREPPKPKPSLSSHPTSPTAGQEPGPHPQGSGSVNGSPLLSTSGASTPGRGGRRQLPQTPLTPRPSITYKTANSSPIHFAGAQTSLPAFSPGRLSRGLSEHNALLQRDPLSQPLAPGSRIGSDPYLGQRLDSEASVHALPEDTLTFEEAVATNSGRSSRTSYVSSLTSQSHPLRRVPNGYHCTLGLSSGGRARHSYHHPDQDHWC
# T1 sequence (Q02410 whole entry): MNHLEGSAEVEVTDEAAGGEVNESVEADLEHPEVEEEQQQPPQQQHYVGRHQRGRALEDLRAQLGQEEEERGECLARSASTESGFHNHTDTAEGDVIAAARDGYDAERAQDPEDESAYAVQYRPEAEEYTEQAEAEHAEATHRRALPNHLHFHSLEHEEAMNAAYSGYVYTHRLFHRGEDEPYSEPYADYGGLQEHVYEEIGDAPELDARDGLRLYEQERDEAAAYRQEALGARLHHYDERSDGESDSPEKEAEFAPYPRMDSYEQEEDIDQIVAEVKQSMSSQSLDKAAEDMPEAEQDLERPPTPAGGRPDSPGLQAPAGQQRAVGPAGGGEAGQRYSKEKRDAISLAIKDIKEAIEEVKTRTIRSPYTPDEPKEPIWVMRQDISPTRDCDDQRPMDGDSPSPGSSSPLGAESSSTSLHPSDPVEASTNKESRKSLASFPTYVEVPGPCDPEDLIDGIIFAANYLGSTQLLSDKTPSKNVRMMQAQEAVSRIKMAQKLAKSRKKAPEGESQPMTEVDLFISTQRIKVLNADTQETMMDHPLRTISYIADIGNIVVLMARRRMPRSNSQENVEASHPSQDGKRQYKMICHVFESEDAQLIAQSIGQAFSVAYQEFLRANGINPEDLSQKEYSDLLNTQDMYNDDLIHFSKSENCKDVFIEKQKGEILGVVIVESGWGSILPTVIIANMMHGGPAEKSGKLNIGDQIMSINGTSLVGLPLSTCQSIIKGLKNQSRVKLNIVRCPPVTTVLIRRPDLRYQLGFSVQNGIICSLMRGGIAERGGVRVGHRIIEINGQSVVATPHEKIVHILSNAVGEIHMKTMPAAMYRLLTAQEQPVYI
# [7] = molecular target: T1, Voltage-gated N-type calcium channel alpha-1B subunit/Amyloid beta A4 precursor protein-binding family A member 1; assay: disruptors of Mint-PDZ/N-type channel peptide interaction – biochemical, HTRF, SAR follow-up (AID 2489); format: functional
# [8] = molecular target: Glucose-6-phosphate 1-dehydrogenase (Homo sapiens, UniProt P11413); assay: human G6PD enzyme inhibitors, dose response, selectivity assay for P. falciparum G6PD inhibitor project, biochemical, fluorescence (AID 504792); format: functional
# [9] = molecular target: Cystic fibrosis transmembrane conductance regulator/Golgi-associated PDZ and coiled-coil motif-containing protein (Homo sapiens, UniProt P13569+Q9HD26); assay: CAL PDZ peptide-binding inhibitors, dose response, biochemical, fluorescence polarization, Cerulean-tagged CAL PDZ, cherry-picks (AID 504773)
# [10] = molecular target: Nonstructural protein 1 (Influenza A virus, UniProt Q194T2); format: functional, Influenza A virus (A/California/07/2009(H1N1))
# [11] = molecular target: Mitochondrial peptide methionine sulfoxide reductase (Bos taurus, UniProt P54149); assay: Absorbance-based biochemical high throughput dose response assay for activators of Methionine sulfoxide reductase A (MsrA).; format: functional
# Mitochondrial peptide methionine sulfoxide reductase, sequence (P54149 whole entry): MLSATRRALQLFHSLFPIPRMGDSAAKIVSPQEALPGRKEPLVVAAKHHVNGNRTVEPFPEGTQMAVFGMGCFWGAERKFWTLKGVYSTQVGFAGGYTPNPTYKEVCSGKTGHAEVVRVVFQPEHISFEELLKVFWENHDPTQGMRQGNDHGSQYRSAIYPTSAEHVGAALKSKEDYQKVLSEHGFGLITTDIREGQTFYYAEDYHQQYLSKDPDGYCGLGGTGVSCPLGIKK
# [12] = HeLa cell cytotoxicity, dose response, cytotoxicity control for MgcRacGAP inhibitor project (AID 624300); format: functional
# [13] = molecular target: T2, Rac GTPase-activating protein 1 (Homo sapiens, UniProt Q9H0H5); assay: MgcRacGAP GTPase-activating activity inhibitors, confirmation, biochemical, ADP Hunter fluorescence, primary and confirmatory (AID 624330); format: functional
# T2 sequence (Q9H0H5 whole entry): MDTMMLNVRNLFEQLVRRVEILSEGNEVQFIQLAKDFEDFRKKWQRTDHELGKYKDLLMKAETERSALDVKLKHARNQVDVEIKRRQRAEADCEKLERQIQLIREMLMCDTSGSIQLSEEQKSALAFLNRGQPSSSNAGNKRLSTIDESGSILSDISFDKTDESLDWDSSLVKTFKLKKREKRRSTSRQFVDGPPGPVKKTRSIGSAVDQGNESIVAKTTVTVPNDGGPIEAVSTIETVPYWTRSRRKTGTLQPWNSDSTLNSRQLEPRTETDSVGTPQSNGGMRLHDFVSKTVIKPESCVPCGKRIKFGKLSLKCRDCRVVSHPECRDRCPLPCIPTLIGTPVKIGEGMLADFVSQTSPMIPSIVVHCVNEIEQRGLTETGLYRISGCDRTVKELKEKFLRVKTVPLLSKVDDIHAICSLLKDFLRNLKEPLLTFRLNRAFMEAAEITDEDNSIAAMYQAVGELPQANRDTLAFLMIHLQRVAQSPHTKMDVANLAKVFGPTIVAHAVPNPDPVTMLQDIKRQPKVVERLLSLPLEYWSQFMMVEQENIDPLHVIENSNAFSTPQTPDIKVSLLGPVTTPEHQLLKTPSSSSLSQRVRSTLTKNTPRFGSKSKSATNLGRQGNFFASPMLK
# [14] = molecular target: T3, Kappa-type opioid receptor (Homo sapiens, UniProt P41145); assay: SAR analysis of Antagonists of the Kappa Opioid Receptor (KOR) using an Image-Based Assay - Set 2. [Related pubchem assays (depositor defined):AID1777, AID1785, AID1786, AID1966, AID2133, AID2136, AID2284, AID2285, AID2348]; format: functional
# T3 sequence (P41145 whole entry): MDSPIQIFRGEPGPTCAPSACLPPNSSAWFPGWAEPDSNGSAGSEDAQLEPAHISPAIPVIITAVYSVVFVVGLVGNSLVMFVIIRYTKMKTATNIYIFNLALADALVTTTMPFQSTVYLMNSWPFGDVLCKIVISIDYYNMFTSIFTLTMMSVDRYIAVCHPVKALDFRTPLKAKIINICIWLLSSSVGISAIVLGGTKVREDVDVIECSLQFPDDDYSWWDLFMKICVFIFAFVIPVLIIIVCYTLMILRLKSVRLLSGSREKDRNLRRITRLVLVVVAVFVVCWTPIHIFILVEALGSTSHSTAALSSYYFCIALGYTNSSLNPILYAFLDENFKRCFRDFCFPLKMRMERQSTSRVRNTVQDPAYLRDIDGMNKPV
# [15] = molecular target: T3, Kappa-type opioid receptor; assay: SAR analysis of small molecule agonists of the kappa opioid receptor via a luminescent beta-arrestin assay - Set 2. [Related pubchem assays (depositor defined):AID1777, AID1785, AID1786, AID1966, AID2133, AID2136, AID2284, AID449737]; format: functional
# [16] = molecular target: Delta-type opioid receptor (Homo sapiens, UniProt P41143); assay: SAR Analysis of Antagonists of the DOR Receptor using an Image-Based Assay - Set 2. [Related pubchem assays (depositor defined):AID1777, AID1785, AID1786, AID1966, AID2133, AID2136, AID2284, AID2285, AID2357]; format: functional
# Delta-type opioid receptor, sequence (P41143 whole entry): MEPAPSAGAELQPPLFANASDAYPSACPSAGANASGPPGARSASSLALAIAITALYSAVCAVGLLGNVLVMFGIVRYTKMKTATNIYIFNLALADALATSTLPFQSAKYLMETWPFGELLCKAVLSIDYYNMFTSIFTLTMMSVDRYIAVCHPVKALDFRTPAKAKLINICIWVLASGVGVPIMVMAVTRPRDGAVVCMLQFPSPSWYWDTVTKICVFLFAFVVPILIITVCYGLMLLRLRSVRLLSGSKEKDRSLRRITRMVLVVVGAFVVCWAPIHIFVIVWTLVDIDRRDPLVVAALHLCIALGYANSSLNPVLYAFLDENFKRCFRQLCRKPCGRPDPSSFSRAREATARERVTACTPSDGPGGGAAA
# [17] = Luminescence Cell Based Dose Confirmation HTS to Identify Activators of 5'UTR Stem-Loop Driven Alpha-Synuclein mRNA Translation in H4 Neuroglioblastoma Cells. [Related pubchem assays (depositor defined):AID1813, AID1829]; format: functional; conditions: Homo sapiens
# [18] = molecular target: T4, Small ubiquitin-related modifier 1 (Homo sapiens, UniProt P63165); assay: inhibitors of SUMO1 peptide binding, dose response, biochemical, fluorescence polarization, uHTS hits (AID 624382); format: functional; conditions: read-out: IC50_Mean
# T4 sequence (P63165 whole entry): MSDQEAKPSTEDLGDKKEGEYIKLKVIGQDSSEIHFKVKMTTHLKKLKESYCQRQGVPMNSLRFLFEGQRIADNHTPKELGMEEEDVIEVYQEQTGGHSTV
# [19] = molecular target: T4, Small ubiquitin-related modifier 1; assay: inhibitors of SUMO1 partner interactions, dose response, biochemical, FRET (AID 624383); format: functional; conditions: read-out: IC50_Mean
structure (smiles),measurement,setting,value
CCOC(=O)C1(Cc2ccc(O)cc2)NC(c2ccccc2F)C2C(=O)N(C)C(=O)C21 (centres undefined),EC50,[1],> 50 µM (not active)
COC(=O)c1c(NC(=O)/C=C/c2ccco2)sc2c1CCC2,IC50,[2],50.4 µM (active)
same,IC50,[3],> 100 µM (inactive)
COC(=O)CN(n1cnnc1)S(=O)(=O)c1ccccc1,IC50,[4],0.497 µM (active)
same,IC50,[5],> 59.6 µM (not active)
COc1ccccc1CCNC(=O)c1cc(-c2ccco2)nc2ccccc12,IC50,[6],25.8 µM (active)
same,IC50,[7],> 56.8 µM (inactive)
CN(C)c1ccc(C=c2c3cc(O)ccc3n3c2cc(-c2ccccc2)[n+]3C)cc1,IC50,[8],> 80 µM (inactive)
same,AC50,[9],44.6 µM (active)
same,IC50,[10],3.76 µM (active)
same,EC50,[11],> 104 µM (inactive)
same,CC50,[12],50.7 µM (active)
same,IC50,[13],20.1 µM (active)
CC[C@@](C)(C(=O)NC1CCCCC1)N(Cc1ccco1)C(=O)c1ccccn1,IC50,[14],> 32 µM (inactive)
same,EC50,[15],0.128 µM (active)
same,IC50,[16],> 32 µM (inactive)
Fc1ccc(Nc2nnc(-c3ccncc3)s2)cc1Cl,EC50,[17],12 µM (active)
same,IC50,[18],> 66.6 µM (inactive)
same,IC50,[19],100 µM (inactive)
